Assays:
BRM = molecular target: T1, BRM (Homo sapiens, UniProt P51531); assay: ATPase catalytic activity assay (ADP-Glo), BRM; assay type: biochemical; settings: Table 10; for Ratio (BRG1 IC50 (μM) divided by BRM IC50 (μM)): ATPase assay, selectivity BRG1/BRM; for IC50: ATPase catalytic activity assay (ADP-Glo)
T1 construct: made in house; host or cells: High Five insect cells
Summary of the method: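 Reaction holds 30 nM BRM, 20 nM salmon sperm DNA and 400 μM ATP in 20 mM Tris pH 8, 20 mM MgCl2, 50 mM NaCl, 0.1% Tween-20, 1 mM DTT. Incubated 1 h at room temperature. ADP formed is detected by ADP-Glo luminescence.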

BRG-1 = molecular target: T2, BRG-1 (Homo sapiens, UniProt P51532); assay: ATPase catalytic activity assay (ADP-Glo), BRG-1; assay type: biochemical; settings: Table 10, read-out: BRG1 IC50
T2 construct: made in house; host or cells: High Five insect cells
Summary of the method: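 Signal reflects ADP produced by the enzyme, quantified as luminescence after unused ATP is cleared and ADP is reconverted to ATP for the luciferase reaction; both steps run at room temperature, 40 and 60 min respectively.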

T2 sequence (P51532 whole entry): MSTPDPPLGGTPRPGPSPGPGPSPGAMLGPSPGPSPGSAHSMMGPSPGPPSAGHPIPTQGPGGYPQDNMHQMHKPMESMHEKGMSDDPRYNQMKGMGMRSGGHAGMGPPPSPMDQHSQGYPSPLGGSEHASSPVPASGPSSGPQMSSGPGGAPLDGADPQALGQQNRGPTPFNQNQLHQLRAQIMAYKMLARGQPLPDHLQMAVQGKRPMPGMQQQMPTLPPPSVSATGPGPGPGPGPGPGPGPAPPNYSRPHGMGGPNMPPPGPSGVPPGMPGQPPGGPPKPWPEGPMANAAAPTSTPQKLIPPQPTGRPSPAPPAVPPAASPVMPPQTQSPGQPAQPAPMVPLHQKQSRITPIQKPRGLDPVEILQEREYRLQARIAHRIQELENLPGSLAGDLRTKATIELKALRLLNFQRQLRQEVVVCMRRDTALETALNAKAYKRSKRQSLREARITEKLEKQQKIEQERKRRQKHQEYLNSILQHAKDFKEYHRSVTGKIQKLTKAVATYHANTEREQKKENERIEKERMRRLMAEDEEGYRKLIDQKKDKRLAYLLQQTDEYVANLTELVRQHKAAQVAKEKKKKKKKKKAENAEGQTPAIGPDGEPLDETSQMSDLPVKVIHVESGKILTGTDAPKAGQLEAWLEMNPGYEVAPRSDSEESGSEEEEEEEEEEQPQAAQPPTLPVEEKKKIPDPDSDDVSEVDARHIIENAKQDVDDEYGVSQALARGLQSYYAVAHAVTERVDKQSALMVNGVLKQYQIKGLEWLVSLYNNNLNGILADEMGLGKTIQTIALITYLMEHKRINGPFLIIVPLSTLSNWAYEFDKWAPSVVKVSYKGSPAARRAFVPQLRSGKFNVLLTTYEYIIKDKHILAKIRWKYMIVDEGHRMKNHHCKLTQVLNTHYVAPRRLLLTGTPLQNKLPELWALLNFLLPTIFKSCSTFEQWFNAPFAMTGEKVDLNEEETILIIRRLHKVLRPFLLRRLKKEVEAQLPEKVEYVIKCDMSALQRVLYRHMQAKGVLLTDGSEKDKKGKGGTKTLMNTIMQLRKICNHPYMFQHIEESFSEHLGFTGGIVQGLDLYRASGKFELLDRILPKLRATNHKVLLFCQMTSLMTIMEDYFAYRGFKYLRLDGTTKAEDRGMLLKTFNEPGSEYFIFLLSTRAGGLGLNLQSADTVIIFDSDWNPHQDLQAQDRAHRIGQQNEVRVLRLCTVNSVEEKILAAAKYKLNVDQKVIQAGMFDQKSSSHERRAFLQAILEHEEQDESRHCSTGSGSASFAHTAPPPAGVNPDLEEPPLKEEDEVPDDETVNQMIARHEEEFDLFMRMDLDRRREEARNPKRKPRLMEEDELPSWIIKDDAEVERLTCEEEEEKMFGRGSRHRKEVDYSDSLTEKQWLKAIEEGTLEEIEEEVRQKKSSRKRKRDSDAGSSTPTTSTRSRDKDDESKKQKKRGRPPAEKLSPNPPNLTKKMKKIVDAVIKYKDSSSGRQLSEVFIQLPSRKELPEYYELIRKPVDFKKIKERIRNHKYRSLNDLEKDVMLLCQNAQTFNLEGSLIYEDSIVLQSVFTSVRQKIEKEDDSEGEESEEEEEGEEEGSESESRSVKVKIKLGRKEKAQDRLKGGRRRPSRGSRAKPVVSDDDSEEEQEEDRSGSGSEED
T1 sequence (P51531 whole entry): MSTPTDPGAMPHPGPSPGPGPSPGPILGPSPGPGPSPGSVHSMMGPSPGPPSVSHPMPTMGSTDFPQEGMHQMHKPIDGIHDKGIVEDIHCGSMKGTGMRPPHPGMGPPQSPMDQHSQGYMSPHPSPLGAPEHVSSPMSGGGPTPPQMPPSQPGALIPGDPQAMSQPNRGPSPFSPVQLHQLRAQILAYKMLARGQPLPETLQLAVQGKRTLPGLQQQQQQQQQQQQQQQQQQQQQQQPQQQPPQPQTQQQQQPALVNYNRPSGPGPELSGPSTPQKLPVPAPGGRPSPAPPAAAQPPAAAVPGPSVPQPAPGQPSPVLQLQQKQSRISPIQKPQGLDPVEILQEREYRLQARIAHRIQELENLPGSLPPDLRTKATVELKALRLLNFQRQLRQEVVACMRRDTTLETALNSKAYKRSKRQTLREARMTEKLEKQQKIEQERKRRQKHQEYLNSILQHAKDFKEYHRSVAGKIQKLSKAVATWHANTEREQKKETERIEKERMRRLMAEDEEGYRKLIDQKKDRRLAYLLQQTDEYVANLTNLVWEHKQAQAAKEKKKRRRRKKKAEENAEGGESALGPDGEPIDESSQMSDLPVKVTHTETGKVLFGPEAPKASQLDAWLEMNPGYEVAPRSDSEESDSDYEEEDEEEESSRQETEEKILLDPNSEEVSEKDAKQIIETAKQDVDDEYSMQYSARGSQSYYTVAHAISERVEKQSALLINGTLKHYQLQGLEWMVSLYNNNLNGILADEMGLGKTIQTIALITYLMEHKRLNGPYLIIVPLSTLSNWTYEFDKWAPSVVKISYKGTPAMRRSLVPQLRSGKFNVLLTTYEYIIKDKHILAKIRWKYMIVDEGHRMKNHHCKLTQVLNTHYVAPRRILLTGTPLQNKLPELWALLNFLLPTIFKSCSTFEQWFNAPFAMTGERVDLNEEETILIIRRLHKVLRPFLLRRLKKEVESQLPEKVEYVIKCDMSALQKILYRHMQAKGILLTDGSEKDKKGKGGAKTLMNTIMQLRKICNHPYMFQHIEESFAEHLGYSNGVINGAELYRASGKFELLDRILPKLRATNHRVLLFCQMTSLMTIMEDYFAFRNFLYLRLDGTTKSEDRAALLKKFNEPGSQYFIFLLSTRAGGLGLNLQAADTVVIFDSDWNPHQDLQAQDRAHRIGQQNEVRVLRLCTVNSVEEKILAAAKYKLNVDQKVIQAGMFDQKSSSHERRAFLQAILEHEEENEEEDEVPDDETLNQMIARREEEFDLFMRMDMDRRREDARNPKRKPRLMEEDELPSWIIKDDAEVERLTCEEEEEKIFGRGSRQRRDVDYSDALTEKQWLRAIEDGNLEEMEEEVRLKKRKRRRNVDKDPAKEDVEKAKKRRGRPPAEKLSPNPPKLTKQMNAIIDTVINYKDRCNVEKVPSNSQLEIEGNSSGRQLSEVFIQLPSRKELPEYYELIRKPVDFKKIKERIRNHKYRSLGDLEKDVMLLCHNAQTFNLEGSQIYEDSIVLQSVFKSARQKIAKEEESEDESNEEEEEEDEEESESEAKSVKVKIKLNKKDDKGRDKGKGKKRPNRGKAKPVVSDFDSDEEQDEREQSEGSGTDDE

Compound | Ratio (BRG1 IC50 (μM) divided by BRM IC50 (μM)) (BRM) | IC50 (BRM) | IC50 (BRG-1)
Cc1cc(C(=O)NCc2cc3nc(N4CCOc5cc(N6CC[C@H]6C)cnc54)ccc3cn2)cc2c1COC[C@H](F)S2(=O)=O [Compound 28] | 22.66 | 1.8 nM | 42.2 nM
CCOc1ccc(-c2ccc3cnc(CNC(=O)c4cc(F)c5c(c4)S(=O)(=O)[C@@H](F)CCO5)cc3n2)nc1[C@H]1CC1(F)F [Compound 313] | 36.05 | 13 nM | 554 nM
[2H]C1([2H])OC([2H])([2H])[C@H](F)S(=O)(=O)c2cc(C(=O)NCc3cc4nc(N5CCOc6cc(C7CC7)cnc65)ccc4cn3)cc(F)c21 [Compound 3] |  | 0.8 nM | 25.2 nM
COc1nc(C(C)(F)F)ccc1-c1ccc2cnc(CNC(=O)c3cc(F)c4c(c3)S(=O)(=O)[C@@H](F)COC4)cc2n1 [Compound 75] | 26.00 | 2.8 nM | 80.1 nM
CCOc1cccc(-c2ccc3cnc(CNC(=O)c4cc(F)c5c(c4)S(=O)(=O)[C@@H](F)CCO5)cc3n2)n1 [Compound 170] | 24.59 | 5.3 nM | 122 nM
COc1nc(C(F)F)ccc1-c1ccc2cnc(CNC(=O)c3cc(F)c4c(c3)S(=O)(=O)[C@@H](F)CCO4)cc2n1 [Compound 177] | 22.67 | 5.6 nM | 113 nM
O=C(NCc1cc2nc(-c3cccc([C@H]4CC4(F)F)n3)ccc2cn1)c1cc(F)c2c(c1)S(=O)(=O)[C@@H](F)CCO2 [Compound 250] | 26.90 | 8 nM | 220 nM
CO[C@H]1CN(c2cccc(-c3ccc4cnc(CNC(=O)c5cc(F)c6c(c5)S(=O)(=O)[C@@H](F)CCO6)cc4n3)n2)C[C@@H]1C [Compound 67] | 17.37 | 2.7 nM | 46.2 nM
CO[C@H]1CN(c2cccc(-c3ccc4cnc(CNC(=O)c5cc(F)c6c(c5)S(=O)(=O)[C@@H](F)COC6)cc4n3)n2)C[C@@H]1F [Compound 54] | 9.72 | 2.5 nM | 27.9 nM
O=C(NCc1cc2nc(N3CCOc4c(OCC5CC5)ccnc43)ccc2cn1)c1cc(F)c2c(c1)S(=O)(=O)[C@@H](F)CCO2 [Compound 113] | 21.12 | 4 nM | 83.9 nM
C[C@@H]1CN(c2cccc(-c3ccc4cnc(CNC(=O)c5ccc6c(c5)S(=O)(=O)[C@H](F)CO[C@H]6C)cc4n3)n2)C[C@H](C)O1 [Compound 200] | 16.77 | 6.1 nM | 101 nM
COc1ccc(-c2ccc3cnc(CNC(=O)c4cc(F)c5c(c4)S(=O)(=O)[C@@H](F)CCO5)cc3n2)nc1C1CC1 [Compound 181] | 29.09 | 5.7 nM | 146 nM
O=C(NCc1cc2nc(-c3cccc(C4CC4)n3)ccc2cn1)c1cc(Cl)c2c(c1)S(=O)(=O)[C@@H](F)COC2 [Compound 302] | 30.11 | 10 nM | 348 nM
Cc1cc(C(=O)NCc2cc3nc(N4CCOc5ccc(C(F)F)nc54)ccc3cn2)cc2c1COC[C@H](F)S2(=O)=O [Compound 237] | 25.36 | 7.6 nM | 172 nM
O=C(NCc1cc2nc(N3CCOc4cc(C(F)F)cnc43)ccc2cn1)c1cc(F)c2c(c1)S(=O)(=O)[C@@H](F)COC2 [Compound 32] | 18.96 | 1.9 nM | 36.7 nM
C[C@@H]1CCN1c1cnc2c(c1)OCCN2c1ccc2cnc(CNC(=O)c3cc(C(F)F)c4c(c3)S(=O)(=O)[C@@H](F)COC4)cc2n1 [Compound 175] | 12.83 | 5.6 nM | 49.3 nM
O=C(NCc1cc2nc(N3CCOc4ccc(N5CC(F)C5)nc43)ccc2cn1)c1cc(F)c2c(c1)S(=O)(=O)[C@@H](F)CCO2 [Compound 246] | 23.74 | 7.8 nM | 217 nM
C[C@H]1[C@H](F)CN1c1cnc2c(c1)OCCN2c1ccc2cnc(CNC(=O)c3cc(F)c4c(c3)S(=O)(=O)[C@@H](F)CCO4)cc2n1 [Compound 142] | 19.04 | 4.7 nM | 89.1 nM
O=C(NCc1cc2nc(N3CCOc4cc(C5CC5)cnc43)ccc2cn1)c1cc(Cl)c2c(c1)S(=O)(=O)[C@@H](F)COC2 [Compound 61] | 21.08 | 2.6 nM | 48.5 nM
O=C(NCc1cc2nc(N3CCOc4cc(N5C[C@H](F)[C@@H](F)C5)cnc43)ccc2cn1)c1cc(F)c2c(c1)S(=O)(=O)[C@@H](F)CCO2 [Compound 138] | 18.95 | 4.7 nM | 88.2 nM

Compound | Ratio (BRG1 IC50 (μM) divided by BRM IC50 (μM)) (BRM) | IC50 (BRM) | IC50 (BRG-1)
COc1ccc(-c2ccc3cnc(CNC(=O)c4cc(F)c5c(c4)S(=O)(=O)[C@@H](F)COC5)cc3n2)nc1[C@H]1CC1(F)F [Compound 280] | 11.58 | 9.2 nM | 106 nM
O=C(NCc1cc2nc(N3CCOc4cc(N5CC[C@H](F)C5)cnc43)ccc2cn1)c1cc(F)c2c(c1)S(=O)(=O)[C@@H](F)CCO2 [Compound 183] | 12.89 | 5.7 nM | 89.9 nM
O=C(NCc1cc2nc(-c3cccc(OC(F)F)n3)ccc2cn1)c1cc(F)c2c(c1)S(=O)(=O)[C@@H](F)COC2 [Compound 205] | 23.40 | 6.1 nM | 128 nM
O=C(NCc1cc2nc(N3CCCc4c(OC5CC5)ncc(F)c43)ccc2cn1)c1cc(F)c2c(c1)S(=O)(=O)[C@@H](F)CCO2 [Compound 262] | 19.49 | 8.5 nM | 166 nM
COc1nc(C(F)F)ccc1-c1ccc2cnc(CNC(=O)c3cc(F)c4c(c3)S(=O)(=O)[C@@H](F)CCO4)c(F)c2n1 [Compound 136] | 13.12 | 4.6 nM | 74.9 nM
O=C(NCc1cc2nc(N3CCOc4cc([C@H]5CC5(F)F)cnc43)ccc2cn1)c1cc(F)c2c(c1)S(=O)(=O)[C@@H](F)CCO2 [Compound 166] | 15.93 | 5.3 nM | 83.8 nM
COCc1ccnc2c1OCCN2c1ccc2cnc(CNC(=O)c3cc(F)c4c(c3)S(=O)(=O)[C@@H](F)CCO4)cc2n1 [Compound 147] | 11.98 | 4.8 nM | 58.1 nM
C[C@@H]1C[C@H]1c1cnc2c(c1)OCCN2c1ccc2cnc(CNC(=O)c3cc(F)c4c(c3)S(=O)(=O)[C@@H](F)CCO4)cc2n1 [Compound 115] | 22.17 | 4 nM | 105 nM
O=C(NCc1cc2nc(N3CCOc4cc(N5CC(F)(F)C5)cnc43)ccc2cn1)c1cc(F)c2c(c1)S(=O)(=O)[C@@H](F)CCO2 [Compound 244] | 25.74 | 7.8 nM | 245 nM
COc1nc(C)ccc1-c1ccc2cnc(CNC(=O)c3cc(F)c4c(c3)S(=O)(=O)[C@@H](F)CCO4)cc2n1 [Compound 193] | 16.06 | 5.9 nM | 110 nM
COCCc1cnc2c(c1)OCCN2c1ccc2cnc(CNC(=O)c3cc(F)c4c(c3)S(=O)(=O)[C@@H](F)CCO4)cc2n1 [Compound 201] | 10.41 | 6.1 nM | 64 nM
CO[C@@H]1C[C@H]1c1cnc2c(c1)OCCN2c1ccc2cnc(CNC(=O)c3cc(F)c4c(c3)S(=O)(=O)[C@@H](F)CCO4)cc2n1 [Compound 152] | 11.35 | 5 nM | 53 nM
C[C@H]1C[C@@H]1c1ccc2c(n1)N(c1ccc3cnc(CNC(=O)c4cc(F)c5c(c4)S(=O)(=O)[C@@H](F)COC5)cc3n1)CCO2 [Compound 13] | 14.77 | 1.5 nM | 24.3 nM
COc1nc([C@H](F)CF)ccc1-c1ccc2cnc(CNC(=O)c3cc(F)c4c(c3)S(=O)(=O)[C@@H](F)CCO4)cc2n1 [Compound 98] | 31.77 | 3.5 nM | 123 nM
C#Cc1cc(C(=O)NCc2cc3nc(-c4cccc(N5C[C@@H](C)O[C@@H](C)C5)n4)ccc3cn2)cc2c1OCC[C@@H](F)S2(=O)=O [Compound 315] | 43.60 | 24.9 nM | 1080 nM
O=C(NCc1cc2cc(-c3cccc([C@@H]4CC4(F)F)n3)ccc2cn1)c1cc(F)c2c(c1)S(=O)(=O)[C@@H](F)CCO2 [Compound 268] | 22.51 | 8.8 nM | 199 nM
CO[C@@H]1C[C@H]1N(C)c1cccc(-c2ccc3cnc(CNC(=O)c4cc(F)c5c(c4)S(=O)(=O)[C@@H](F)COC5)cc3n2)n1 [Compound 215] | 13.76 | 6.5 nM | 89.3 nM
O=C(NCc1cc2nc(-c3cccc(OC(F)F)n3)ccc2cn1)c1cc(Cl)c2c(c1)S(=O)(=O)[C@@H](F)CCO2 [Compound 225] | 49.95 | 7.1 nM | 461 nM
COc1ccc(-c2ccc3cnc(CNC(=O)c4cc(F)c5c(c4)S(=O)(=O)[C@@H](F)CCO5)cc3n2)nc1[C@@H]1CC1(F)F [Compound 273] | 23.61 | 8.9 nM | 210 nM
C#Cc1ccc2c(n1)N(c1ccc3cnc(CNC(=O)c4cc(F)c5c(c4)S(=O)(=O)[C@@H](F)CCO5)cc3n1)CCO2 [Compound 110] | 15.35 | 3.9 nM | 69.4 nM
